Results on 13 compounds are retold here after BindingDB's records for doi:10.1016/j.bmcl.2008.06.095 (Tokyo University of Agriculture and Technology, 2008).

The assay in a line: Antagonist activity at VDR in human HL60 cells assessed as effect on 1,25-(OH)2-D3-induced cell differentiation by NBT assay.

In general, IC50 refers to the midpoint of a concentration-inhibition curve. With `C=C1/C(=C\C=C2/CCC[C@]3(C)[C@@H]([C@H](C)C[C@@H]4C[C@@](C)(O)C(=O)N4Cc4cc(OC)cc(OC)c4)CC[C@@H]23)C[C@@H](O)C[C@@H]1O` [(3R,5R)-1-(3,5-dimethoxybenzyl)-5-((R)-2-((1R,3aS,7aR)-4-(2-((3S,5R)-3,5-dihydroxy-2-methylenecyclohexylidene)ethylidene)-7a-methyl-octahydro-1H-inden-1-yl)propyl)-3-hydroxy-3-methylpyrrolidin-2-one], the concentration for half-maximal inhibition (IC50) was above 3000 nM.

For `C=C1/C(=C\C=C2/CCC[C@]3(C)[C@@H]([C@H](C)C[C@H]4C[C@@](C)(O)C(=O)N4Cc4cc(OC)cc(OC)c4)CC[C@@H]23)C[C@@H](O)C[C@@H]1O` [(3R,5S)-1-(3,5-dimethoxybenzyl)-5-((R)-2-((1R,3aS,7aR)-4-(2-((3S,5R)-3,5-dihydroxy-2-methylenecyclohexylidene)ethylidene)-7a-methyl-octahydro-1H-inden-1-yl)propyl)-3-hydroxy-3-methylpyrrolidin-2-one], the IC50 is above 3000 nM. Next, `C=C1/C(=C\C=C2/CCC[C@]3(C)[C@@H]([C@H](C)C[C@@H]4C[C@](C)(O)C(=O)N4Cc4cc(OC)cc(OC)c4)CC[C@@H]23)C[C@@H](O)C[C@@H]1O` [(3S,5R)-1-(3,5-dimethoxybenzyl)-5-((R)-2-((1R,3aS,7aR)-4-(2-((3S,5R)-3,5-dihydroxy-2-methylenecyclohexylidene)ethylidene)-7a-methyl-octahydro-1H-inden-1-yl)propyl)-3-hydroxy-3-methylpyrrolidin-2-one]: above 3000 nM; `C=C1/C(=C\C=C2/CCC[C@]3(C)[C@@H]([C@H](C)C[C@H]4C[C@](C)(O)C(=O)N4Cc4cc(OCCCC)cc(OCCCC)c4)CC[C@@H]23)C[C@@H](O)C[C@@H]1O` [(3S,5S)-1-(3,5-dibutoxybenzyl)-5-((R)-2-((1R,3aS,7aR)-4-(2-((3S,5R)-3,5-dihydroxy-2-methylenecyclohexylidene)ethylidene)-7a-methyl-octahydro-1H-inden-1-yl)propyl)-3-hydroxy-3-methylpyrrolidin-2-one]: 540 nM. The same measure for `C=C1/C(=C\C=C2/CCC[C@]3(C)[C@@H]([C@H](C)C[C@H]4C[C@](C)(O)C(=O)N4Cc4cc(OCC)cc(OCC)c4)CC[C@@H]23)C[C@@H](O)C[C@@H]1O` [(3S,5S)-1-(3,5-diethoxybenzyl)-5-((R)-2-((1R,3aS,7aR)-4-(2-((3S,5R)-3,5-dihydroxy-2-methylenecyclohexylidene)ethylidene)-7a-methyl-octahydro-1H-inden-1-yl)propyl)-3-hydroxy-3-methylpyrrolidin-2-one]: 90 nM; for `C=C1/C(=C\C=C2/CCC[C@]3(C)[C@@H]([C@H](C)C[C@H]4C[C@](C)(O)C(=O)N4Cc4cc(OC)cc(OC)c4)CC[C@@H]23)C[C@@H](O)C[C@@H]1O` [(3S,5S)-1-(3,5-dimethoxybenzyl)-5-((R)-2-((1R,3aS,7aR)-4-(2-((3S,5R)-3,5-dihydroxy-2-methylenecyclohexylidene)ethylidene)-7a-methyl-octahydro-1H-inden-1-yl)propyl)-3-hydroxy-3-methylpyrrolidin-2-one]: 300 nM.

In the case of `C=C1/C(=C\C=C2/CCC[C@]3(C)[C@@H]([C@H](C)C[C@H]4C[C@](C)(O)C(=O)N4CCc4cc(OC)cc(OC)c4)CC[C@@H]23)C[C@@H](O)C[C@@H]1O` [(3S,5S)-1-(3,5-dimethoxyphenethyl)-5-((R)-2-((1R,3aS,7aR)-4-(2-((3S,5R)-3,5-dihydroxy-2-methylenecyclohexylidene)ethylidene)-7a-methyl-octahydro-1H-inden-1-yl)propyl)-3-hydroxy-3-methylpyrrolidin-2-one], the IC50 came to 860 nM. Next, `C=C1/C(=C\C=C2/CCC[C@]3(C)[C@@H]([C@H](C)C[C@H]4C[C@](C)(O)C(=O)N4Cc4cc(OCCC)cc(OCCC)c4)CC[C@@H]23)C[C@@H](O)C[C@@H]1O` [(3S,5S)-1-(3,5-dipropoxybenzyl)-5-((R)-2-((1R,3aS,7aR)-4-(2-((3S,5R)-3,5-dihydroxy-2-methylenecyclohexylidene)ethylidene)-7a-methyl-octahydro-1H-inden-1-yl)propyl)-3-hydroxy-3-methylpyrrolidin-2-one]: 180 nM; `C=C1/C(=C\C=C2/CCC[C@]3(C)[C@@H]([C@H](C)C[C@H]4C[C@](C)(O)C(=O)N4Cc4ccccc4)CC[C@@H]23)C[C@@H](O)C[C@@H]1O` [(3S,5S)-1-benzyl-5-((R)-2-((1R,3aS,7aR)-4-(2-((3S,5R)-3,5-dihydroxy-2-methylenecyclohexylidene)ethylidene)-7a-methyl-octahydro-1H-inden-1-yl)propyl)-3-hydroxy-3-methylpyrrolidin-2-one]: 700 nM; `C=C1/C(=C\C=C2/CCC[C@]3(C)[C@@H]([C@H](C)C[C@H]4C[C@](C)(O)C(=O)N4CCCc4cc(OC)cc(OC)c4)CC[C@@H]23)C[C@@H](O)C[C@@H]1O` [(3S,5S)-5-((R)-2-((1R,3aS,7aR)-4-(2-((3S,5R)-3,5-dihydroxy-2-methylenecyclohexylidene)ethylidene)-7a-methyl-octahydro-1H-inden-1-yl)propyl)-1-(3-(3,5-dimethoxyphenyl)propyl)-3-hydroxy-3-methylpyrrolidin-2-one]: 780 nM. Take `C=C1/C(=C\C=C2/CCC[C@]3(C)[C@@H]([C@H](C)C[C@H]4C[C@](C)(O)C(=O)N4CCCc4ccccc4)CC[C@@H]23)C[C@@H](O)C[C@@H]1O` [(3S,5S)-5-((R)-2-((1R,3aS,7aR)-4-(2-((3S,5R)-3,5-dihydroxy-2-methylenecyclohexylidene)ethylidene)-7a-methyl-octahydro-1H-inden-1-yl)propyl)-3-hydroxy-3-methyl-1-(3-phenylpropyl)pyrrolidin-2-one]: the IC50 is 2200 nM. `C=C1/C(=C\C=C2/CCC[C@]3(C)[C@@H]([C@H](C)C[C@H]4C[C@](C)(O)C(=O)N4CCCCc4ccccc4)CC[C@@H]23)C[C@@H](O)C[C@@H]1O` [(3S,5S)-5-((R)-2-((1R,3aS,7aR)-4-(2-((3S,5R)-3,5-dihydroxy-2-methylenecyclohexylidene)ethylidene)-7a-methyl-octahydro-1H-inden-1-yl)propyl)-3-hydroxy-3-methyl-1-(4-phenylbutyl)pyrrolidin-2-one]: the concentration for half-maximal inhibition (IC50) amounted to 390 nM. Next, `C=C1/C(=C\C=C2/CCC[C@]3(C)[C@@H]([C@H](C)C[C@H]4C[C@](C)(O)C(=O)N4CCc4ccccc4)CC[C@@H]23)C[C@@H](O)C[C@@H]1O` [(3S,5S)-5-((R)-2-((1R,3aS,7aR)-4-(2-((3S,5R)-3,5-dihydroxy-2-methylenecyclohexylidene)ethylidene)-7a-methyl-octahydro-1H-inden-1-yl)propyl)-3-hydroxy-3-methyl-1-phenethylpyrrolidin-2-one]: 194 nM.
